# Reference: patent US20220411726A1, “STABILIZED LIQUID BORON-FREE ENZYME COMPOSITIONS” (Novozymes A/S, priority 2019, published 2022)
# Key:
# [1] = tested on: protease (Fermax from Novozymes); assay: Turbidity of commercial liquid protease product after addition of 1,2-hexanediol (nephelometer); format: physicochemical
# Description: (§1) The transparency (turbidity) of two commercial liquid protease (Fermax from Novozymes) and amylase (Fortiva Revo from Novozymes) products were evaluated before and after addition of different amounts of 1,2-hexanediol.
# Protease = assay: Increase in enzyme solubility (supernatant enzyme activity), protease; format: physicochemical; settings: protease suspension, 2 hours at room temperature
# Description: (§2) An aqueous enzyme solution produced via fermentation of microorganism and recovered by removal of cells were concentrated using ultrafiltration to form a supersaturated protein solution. The solution was cooled below 5° C. for more than 24 hours to generate protein precipitate. The protein precipitate was suspended in the cold solution by shaking before use. Water and 1,2-hexanediol or glycerol were added to the protein suspension to obtain a diluted protein suspension with the indicated concentration of 1,2-hexanediol or glycerol while keeping the dilution of the protein suspension constant (70% w/w protein suspension to 30% w/w water/1,2-hexanediol/glycerol). The diluted protein suspensions were mixed for 2 hours at room temperature on a magnetic stirred followed by centrifugation to generate a clear supernatant. The obtained supernatant was analyzed for enzyme activity. The data in Table 5 show how much the enzyme solubility (enzyme activity) has increased compared to the reference sample, which only contains water.
# [2] = tested on: aqueous protease solution; assay: Physical stability of a protease solution with 1,2-hexanediol or glycerol (visual inspection and NTU); format: physicochemical; settings: additive 10% w/w; protease 6.8% w/w; 4 weeks at 25° C.
# Description: (§3) Physical stability is the ability to maintain a transparent, preferably clear, composition. This may be evaluated by visual inspection, or by centrifugation. For example, the liquid composition may centrifugated at 1200 G for 10 minutes to determine if a pellet (solid phase) is formed. Alternatively, transparency may be measured as turbidity or haziness, by using a nephelometer to measure NTU to determine light scattering.
# (§4) An aqueous protease solution and an aqueous pectate lyase solution were formulated with 10% w/w water, 10% w/w 1,2-hexanediol, or 10% w/w glycerol to a final enzyme protein concentration of 6.8% w/w and 8.1% w/w, respectively. The physical stability was evaluated after storage for 4 weeks at 25° C., by visual inspection and by NTU measurements, as shown in Table 4.
# [3] = tested on: Aspergillus niger, Candida parapsilosis, Candida famata; assay: Microbial stability challenge of protease formulation, bottle 3; format: cell-based; settings: inoculated to 10^5 CFU/mL
# Description: (§5) An aqueous protease (subtilisin) solution was formulated with 40% w/w glycerol at pH 6.0 to a final enzyme protein concentration of 5.5% w/w. Two samples were prepared by adding 4% w/w 1,2-hexanediol or 0.3% w/w 1,2-octanediol to the protease solution.
# (§6) This was done by challenging the formulations with the microorganisms in Table 7. Each of the three bottles in Table 8 were inoculated to a total of 10^5 CFU/mL of the test microorganisms.
# (§7) The bottles were analyzed for CFU/mL after 2 and 4 weeks of incubation at 20-25° C. CFU (colony forming units) per mL was measured using standard microbiological methods.
# [4] = tested on: Lactobacillus buchneri, Lactobacillus para paracasei; assay: Microbial stability challenge of protease formulation, bottle 2; format: cell-based; settings: inoculated to 10^5 CFU/mL
# Description: as §5, §6, §7
# [5] = tested on: amylase (Fortiva Revo from Novozymes); assay: Turbidity of commercial liquid amylase product after addition of 1,2-hexanediol (nephelometer); format: physicochemical
# Description: as §1
# Mannanase = assay: Increase in enzyme solubility (supernatant enzyme activity), mannanase; format: physicochemical; settings: mannanase suspension, 2 hours at room temperature
# Description: as §2
# protease (subtilisin) = assay: Enzymatic stability: residual activity of protease after 4 weeks storage; format: physicochemical
# Description: Enzymatic stability is the ability to maintain enzymatic activity after storage. This may be determined by measuring the enzymatic activity before and after storage (for example, 4 weeks storage at 25° C.) to determine how much activity is lost. For practical purposes, the residual activity may be determined by comparing the activity of a stored sample and a frozen reference sample, which are analyzed at the same time to eliminate analytical day-to-day variation.
# An aqueous protease (subtilisin) solution was produced via fermentation of microorganism, recovered by removal of cells and concentrated using ultrafiltration. Water and 1,2-hexanediol were added to the protease solution to obtain a diluted protease solution with the indicated concentration of 1,2-hexanediol while keeping the dilution of the protease solution constant (70 w/w % protease solution to 30% w/w water/1,2-hexanediol). The diluted protease solutions were incubated in closed vials at −18° C., 25° C. and 40° C. for 4 weeks. The protease activity was measured in the stored samples and residual activity calculated by using protease activity in samples stored at −18° C. as reference.
# Pectate lyase = assay: Increase in enzyme solubility (supernatant enzyme activity), pectate lyase; format: physicochemical; settings: pectate lyase suspension, 2 hours at room temperature
# Description: as §2
# aqueous lipase solution = assay: Physical stability of a lipase solution with 1,2-hexanediol or 1,2-octanediol (visual inspection); format: physicochemical; settings: lipase 3% w/w, 15% w/w sorbitol, 6% w/w MPG
# Description: as §3
# An aqueous lipase solution was formulated with 15% w/w sorbitol and 6% w/w MPG to a final enzyme protein concentration of 3% w/w. Two samples were prepared by adding 1% w/w 1,2-hexanediol or 0.3% w/w 1,2-octanediol to the lipase solution.
# [6] = tested on: Escherichia coli, Pseudomonas aeruginosa, Salmonella havana, Acinetobacter spp., Staphylococcus aureus, Staphylococcus xylosus, Enterococcus faecium; assay: Microbial stability challenge of protease formulation, bottle 1; format: cell-based; settings: inoculated to 10^5 CFU/mL
# Description: as §5, §6, §7
# [7] = tested on: aqueous pectate lyase solution; assay: Physical stability of a pectate lyase solution with 1,2-hexanediol or glycerol (visual inspection and NTU); format: physicochemical; settings: additive 10% w/w; pectate lyase 8.1% w/w; 4 weeks at 25° C.
# Description: as §3, §4
# aqueous amylase solution = assay: Physical stability of an amylase solution with 1,2-octanediol (visual inspection and NTU); format: physicochemical; settings: 0.3% w/w 1,2-octanediol, amylase 4.3% w/w, 40% w/w glycerol, pH 4.8
# Description: as §3
# An aqueous amylase solution was formulated with 40% w/w glycerol at pH 4.8 to a final enzyme protein concentration of 4.3% w/w. A sample was prepared by adding 0.3% w/w 1,2-octanediol to the amylase solution, and the physical stability was evaluated by visual inspection and NTU measurement, as shown in Table 2.
# [8] = 4% w/w 1,2-hexanediol, 2 weeks at 20-25° C.
# [9] = 4% w/w 1,2-hexanediol, 4 weeks at 20-25° C.
# [10] = 0.3% w/w 1,2-octanediol, 2 weeks at 20-25° C.
# [11] = 0.3% w/w 1,2-octanediol, 4 weeks at 20-25° C.
smiles,measurement,setting,value
"CCCCC(O)CO (stereo not drawn) [1,2-hexanediol]",Turbidity,"[1]; 5% w/w 1,2-hexanediol added to liquid protease product",21.2 NTU
same,Turbidity,"[1]; 10% w/w 1,2-hexanediol added to liquid protease product",11.7 NTU
same,Increase in enzyme solubility (enzyme activity) compared to the reference sample,Protease; additive 2% w/w,11%
same,Increase in enzyme solubility (enzyme activity) compared to the reference sample,Protease; additive 5% w/w,47%
same,Turbidity,[2],9.4 NTU
same,Visual score,[2],clear
same,"Microbial stability, measured as CFU/mL",[3]; [8],<1.0 × 10^2 CFU/mL
same,"Microbial stability, measured as CFU/mL",[3]; [9],<1.0 × 10^2 CFU/mL
same,"Microbial stability, measured as CFU/mL",[4]; [8],<1.0 × 10^2 CFU/mL
same,"Microbial stability, measured as CFU/mL",[4]; [9],<1.0 × 10^2 CFU/mL
same,Turbidity,"[5]; 5% w/w 1,2-hexanediol added to liquid amylase product",17.2 NTU
same,Turbidity,"[5]; 10% w/w 1,2-hexanediol added to liquid amylase product",14.6 NTU
same,Increase in enzyme solubility (enzyme activity) compared to the reference sample,Mannanase; additive 2% w/w,7%
same,Increase in enzyme solubility (enzyme activity) compared to the reference sample,Mannanase; additive 5% w/w,48%
same,Residual activity of protease after 4 weeks storage,"protease (subtilisin); 2% w/w 1,2-hexanediol, 25° C.",48%
same,Residual activity of protease after 4 weeks storage,"protease (subtilisin); 2% w/w 1,2-hexanediol, 40° C.",8%
same,Residual activity of protease after 4 weeks storage,"protease (subtilisin); 2% w/w 1,2-hexanediol, −18° C. (reference temperature for the calculation)",100%
same,Residual activity of protease after 4 weeks storage,"protease (subtilisin); 5% w/w 1,2-hexanediol, 25° C. (room temperature)",77%
same,Residual activity of protease after 4 weeks storage,"protease (subtilisin); 5% w/w 1,2-hexanediol, 40° C.",14%
same,Residual activity of protease after 4 weeks storage,"protease (subtilisin); 5% w/w 1,2-hexanediol, −18° C. (reference temperature for the calculation)",100%
same,Increase in enzyme solubility (enzyme activity) compared to the reference sample,Pectate lyase; additive 2% w/w,32%
same,Increase in enzyme solubility (enzyme activity) compared to the reference sample,Pectate lyase; additive 5% w/w,66%
same,Physical stability by visual inspection,"aqueous lipase solution; 1% w/w 1,2-hexanediol, 4 weeks at 5° C.",clear
same,Physical stability by visual inspection,"aqueous lipase solution; 1% w/w 1,2-hexanediol, 4 weeks at 25° C.",haze
same,Physical stability by visual inspection,"aqueous lipase solution; 1% w/w 1,2-hexanediol, 4 weeks at 40° C.",precipitate
same,"Microbial stability, measured as CFU/mL",[6]; [8],<1.0 × 10^2 CFU/mL
same,"Microbial stability, measured as CFU/mL",[6]; [9],<1.0 × 10^2 CFU/mL
same,Turbidity,[7],31.2 NTU
same,Visual score,[7],haze
"CCCCCCC(O)CO (stereo not drawn) [1,2-octanediol]","Microbial stability, measured as CFU/mL",[3]; [10],7.0 × 10^2 CFU/mL
same,"Microbial stability, measured as CFU/mL",[3]; [11],<1.0 × 10^2 CFU/mL
same,"Microbial stability, measured as CFU/mL",[4]; [10],<1.0 × 10^2 CFU/mL
same,"Microbial stability, measured as CFU/mL",[4]; [11],<1.0 × 10^2 CFU/mL
same,Turbidity,aqueous amylase solution; 4 weeks at 5° C.,19.1 NTU
same,Visual score,aqueous amylase solution; 4 weeks at 5° C.,haze
same,Turbidity,aqueous amylase solution; 4 weeks at 25° C.,11.9 NTU
same,Visual score,aqueous amylase solution; 4 weeks at 25° C.,haze
same,Turbidity,aqueous amylase solution; 4 weeks at 40° C.,12.7 NTU
same,Visual score,aqueous amylase solution; 4 weeks at 40° C.,haze
same,Physical stability by visual inspection,"aqueous lipase solution; 0.3% w/w 1,2-octanediol, 4 weeks at 5° C.",clear
same,Physical stability by visual inspection,"aqueous lipase solution; 0.3% w/w 1,2-octanediol, 4 weeks at 25° C.",clear
same,Physical stability by visual inspection,"aqueous lipase solution; 0.3% w/w 1,2-octanediol, 4 weeks at 40° C.",haze
same,"Microbial stability, measured as CFU/mL",[6]; [10],3.0 × 10^2 CFU/mL
same,"Microbial stability, measured as CFU/mL",[6]; [11],<1.0 × 10^2 CFU/mL
"OCC(O)CO [Glycerol, glycerol, reference compound]",Increase in enzyme solubility (enzyme activity) compared to the reference sample,Protease; additive 2% w/w,0%
same,Increase in enzyme solubility (enzyme activity) compared to the reference sample,Protease; additive 5% w/w,3%
same,Turbidity,[2],71.2 NTU
same,Visual score,[2],precipitate
same,Increase in enzyme solubility (enzyme activity) compared to the reference sample,Mannanase; additive 2% w/w,10%
same,Increase in enzyme solubility (enzyme activity) compared to the reference sample,Mannanase; additive 5% w/w,41%
same,Increase in enzyme solubility (enzyme activity) compared to the reference sample,Pectate lyase; additive 2% w/w,10%
same,Increase in enzyme solubility (enzyme activity) compared to the reference sample,Pectate lyase; additive 5% w/w,32%
same,Turbidity,[7],540 NTU
same,Visual score,[7],precipitate
